These results are taken from ChEMBL document CHEMBL1123104, “Enzyme-activated irreversible inhibitors of monoamine oxidase: phenylallylamine structure-activity relationships” (J Med Chem, 1985).

As usually defined, the IC50 is the concentration needed to halve the response being measured. Read a low IC50 as greater potency in that assay.

Molecules are shown by their SMILES.

The experiment concerns the target T1, Monoamine oxidase (Rattus norvegicus, UniProt P19643+P21396).
T1 sequence (P19643 whole entry): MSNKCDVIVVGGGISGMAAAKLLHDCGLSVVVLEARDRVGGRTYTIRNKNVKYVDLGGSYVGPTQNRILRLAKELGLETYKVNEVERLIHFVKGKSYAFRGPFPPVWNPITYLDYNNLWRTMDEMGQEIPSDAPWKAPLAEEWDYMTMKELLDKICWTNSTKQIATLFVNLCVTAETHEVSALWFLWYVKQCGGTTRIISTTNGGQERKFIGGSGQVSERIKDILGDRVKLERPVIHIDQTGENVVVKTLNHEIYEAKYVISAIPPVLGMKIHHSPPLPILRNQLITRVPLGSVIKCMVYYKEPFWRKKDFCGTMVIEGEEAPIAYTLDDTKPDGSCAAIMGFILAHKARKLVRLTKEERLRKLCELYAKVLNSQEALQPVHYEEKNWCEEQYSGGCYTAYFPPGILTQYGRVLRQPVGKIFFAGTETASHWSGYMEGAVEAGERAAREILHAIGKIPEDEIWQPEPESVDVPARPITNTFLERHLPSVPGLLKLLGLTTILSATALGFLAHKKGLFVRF
T1 sequence (P21396 whole entry): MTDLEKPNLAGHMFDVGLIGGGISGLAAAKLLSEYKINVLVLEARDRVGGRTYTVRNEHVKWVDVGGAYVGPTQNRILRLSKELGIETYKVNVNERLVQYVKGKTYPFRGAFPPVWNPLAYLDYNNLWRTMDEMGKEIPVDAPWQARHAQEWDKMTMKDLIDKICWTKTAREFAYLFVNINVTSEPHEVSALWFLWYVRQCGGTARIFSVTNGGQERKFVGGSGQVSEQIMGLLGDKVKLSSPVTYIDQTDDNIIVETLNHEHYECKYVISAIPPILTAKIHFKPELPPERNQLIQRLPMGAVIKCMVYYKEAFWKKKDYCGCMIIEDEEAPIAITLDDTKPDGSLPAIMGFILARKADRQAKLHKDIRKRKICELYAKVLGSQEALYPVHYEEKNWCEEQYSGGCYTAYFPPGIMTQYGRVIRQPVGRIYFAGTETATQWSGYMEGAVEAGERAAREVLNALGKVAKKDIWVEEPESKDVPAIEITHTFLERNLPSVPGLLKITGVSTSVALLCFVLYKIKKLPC
Briefly: Inhibitory activity against rat brain mitochondrial Monoamine oxidase.
In the case of `COc1ccc(/C(=C\F)CN)cc1OC.Cl`, the 50% inhibitory concentration (IC50) came out at 0.025 µM. With `COc1ccccc1/C(=C\F)CN.Cl`, the midpoint of inhibition, the IC50, lay at 0.025 µM.

In the case of `Cl.NC/C(=C/F)c1cccc(O)c1`, the 50% inhibitory concentration (IC50) was found to be 0.05 µM.

Molecule `Cl.NC/C(=C/F)c1ccc(Cl)cc1` yielded a half-maximal inhibitory concentration (IC50) of 0.02 µM. The same measure for `Cl.NCC(=C(F)F)c1ccccc1`: 10 µM; for `Cl.NCC(=C(Br)Br)c1ccccc1`: 500 µM.

Turning to `Cl.NC/C(=C/Cl)c1ccccc1`, the 50% inhibitory concentration (IC50) amounted to 100 µM. The figure for `Cl.NC/C(=C/F)c1cccc(C(F)(F)F)c1` is 0.007 µM; for `Cl.NC/C(=C\Cl)c1ccccc1` it is 500 µM.

On to `C=C(CN)c1ccccc1.Cl`, for which the IC50 is 400 µM. `Cl.NC/C(=C/F)c1ccccc1`: the half-inhibitory concentration (IC50) is 0.018 µM. The figure for `Cl.NC/C(=C\F)c1ccccc1` is 0.15 µM; for `Cl.NC/C(=C/F)c1ccc(O)c(O)c1` it is 0.1 µM; for `COc1cccc(/C(=C\F)CN)c1.Cl` it is 0.005 µM. Molecule `Cc1ccc(/C(=C\F)CN)cc1.Cl` had an IC50 of 0.01 µM. For the molecule `Cl.NC/C(=C/Br)c1ccccc1`, the half-maximal inhibitory concentration (IC50) worked out at 40 µM. Molecule `C=CCN` [ALLYLAMINE] registered an IC50 of 500 µM. Compared with the last molecule, the IC50 is about 12-fold higher.
